Results from the NIST ThermoML archive (doi:10.1021/je400212t).
Values joined by “and” are separate entries in the source; they are usually repeats but may differ in a detail not shown here. Equal values may be shown once.

Details: Liquid, Transpiration method

CCCCCCCCCCN [1-decanamine]
Details | vapor or sublimation pressure
299.1 K | 0.013 kPa
300.2 K | 0.014 kPa
301.3 K | 0.0158 kPa
304 K | 0.0195 kPa
306.2 K | 0.0228 kPa
307.3 K | 0.0262 kPa
308.6 K | 0.0291 kPa
310.2 K | 0.0321 kPa
312.2 K | 0.036 kPa
313.2 K | 0.0426 kPa
315.1 K | 0.046 kPa
316.2 K | 0.0512 kPa
317.2 K | 0.0553 kPa
320 K | 0.0655 kPa
320.9 K | 0.0722 kPa
323.2 K | 0.0805 kPa
324.3 K | 0.0911 kPa and 0.0914 kPa
327.2 K | 0.106 kPa
330.1 K | 0.135 kPa and 0.1356 kPa
332.8 K | 0.1661 kPa and 0.1645 kPa
333.1 K | 0.1628 kPa and 0.1635 kPa
335.9 K | 0.1979 kPa and 0.2119 kPa
338.9 K | 0.2519 kPa and 0.2628 kPa
341.9 K | 0.3064 kPa and 0.3025 kPa
343 K | 0.3357 kPa

CCCCCCCN [1-heptanamine]
Details | vapor or sublimation pressure [kPa]
280.2 K | 0.07823
282.2 K | 0.09451
284.2 K | 0.1088
286.2 K | 0.1232
288.2 K | 0.1408
290.2 K | 0.1641
292.2 K | 0.1907
294.2 K | 0.2219
296.2 K | 0.2488
298.3 K | 0.2885
300.3 K | 0.3288
302.2 K | 0.38
303.2 K | 0.4098
306.2 K | 0.5027

CCCCCCCCN [1-octanamine]
Details | vapor or sublimation pressure
274.2 K | 0.0157 kPa
277.7 K | 0.0208 kPa
281 K | 0.0274 kPa
283.2 K | 0.0325 kPa
283.6 K | 0.0347 kPa
285.9 K | 0.0428 kPa
286.5 K | 0.0428 kPa
289.2 K | 0.0517 kPa
289.6 K | 0.0545 kPa
292.4 K | 0.069 kPa and 0.0677 kPa
295.2 K | 0.084 kPa
295.3 K | 0.0856 kPa and 0.0834 kPa
298.1 K | 0.1047 kPa
298.5 K | 0.1064 kPa
301.1 K | 0.1353 kPa
301.2 K | 0.1294 kPa and 0.1369 kPa and 0.1341 kPa
301.3 K | 0.1312 kPa and 0.1328 kPa
304 K | 0.1653 kPa
304.1 K | 0.1667 kPa
307.1 K | 0.2113 kPa
307.3 K | 0.2102 kPa
310.2 K | 0.2494 kPa
310.3 K | 0.2578 kPa
312.3 K | 0.3051 kPa
313 K | 0.3121 kPa
313.3 K | 0.3238 kPa

CC(N)c1ccccc1 (configuration not stated) [1-phenylethanamine]
Details | vapor or sublimation pressure
283.6 K | 0.02509 kPa
287.8 K | 0.03534 kPa
291.3 K | 0.04928 kPa and 0.04951 kPa
295.3 K | 0.06595 kPa
299.2 K | 0.08866 kPa
303.1 K | 0.1183 kPa
307.1 K | 0.1552 kPa
311 K | 0.2024 kPa
314.9 K | 0.2602 kPa
318.9 K | 0.3391 kPa
322.8 K | 0.4391 kPa

NCCc1ccccc1 [2-phenylethylamine]
Details | vapor or sublimation pressure
285.2 K | 0.01545 kPa
287.4 K | 0.01817 kPa
288.2 K | 0.01989 kPa and 0.01942 kPa
290.1 K | 0.02316 kPa
293.1 K | 0.02888 kPa
293.2 K | 0.03129 kPa
298.2 K | 0.04648 kPa and 0.04334 kPa
298.3 K | 0.0443 kPa
300.1 K | 0.05196 kPa
302 K | 0.06007 kPa
303.2 K | 0.06532 kPa
303.3 K | 0.06414 kPa and 0.06328 kPa
304.2 K | 0.06955 kPa
305.1 K | 0.07177 kPa and 0.0755 kPa
306.4 K | 0.08176 kPa
308.2 K | 0.09258 kPa and 0.0878 kPa
310.4 K | 0.1067 kPa
311.2 K | 0.1201 kPa
313.2 K | 0.1331 kPa
313.4 K | 0.1311 kPa
314.2 K | 0.1374 kPa
317.2 K | 0.1818 kPa
318.2 K | 0.1891 kPa
318.4 K | 0.1878 kPa
320.2 K | 0.2187 kPa
323.2 K | 0.2655 kPa

NCc1ccccc1 [benzylamine]
Details | vapor or sublimation pressure
275.5 K | 0.01437 kPa
276.7 K | 0.01472 kPa and 0.01525 kPa
278.6 K | 0.01828 kPa
279.6 K | 0.01912 kPa and 0.02004 kPa
281.5 K | 0.02307 kPa
282.3 K | 0.02534 kPa and 0.02615 kPa
284.5 K | 0.03135 kPa
285.7 K | 0.03458 kPa and 0.03341 kPa
287.6 K | 0.03874 kPa
288 K | 0.03934 kPa
290.5 K | 0.04695 kPa
291.6 K | 0.05362 kPa
293.5 K | 0.06098 kPa
294.2 K | 0.06487 kPa
296.5 K | 0.07884 kPa
297.7 K | 0.08247 kPa
298.4 K | 0.0869 kPa
300.3 K | 0.1015 kPa
301.3 K | 0.1137 kPa
303.3 K | 0.1283 kPa
303.4 K | 0.1277 kPa and 0.1263 kPa
303.5 K | 0.126 kPa
304.3 K | 0.1363 kPa
306.1 K | 0.1469 kPa
306.3 K | 0.1514 kPa
307.4 K | 0.1693 kPa
308.3 K | 0.1781 kPa
308.4 K | 0.1767 kPa
309.4 K | 0.1871 kPa
309.5 K | 0.1951 kPa
310.3 K | 0.2082 kPa
312.2 K | 0.2284 kPa
312.3 K | 0.2272 kPa and 0.2339 kPa
313.4 K | 0.2491 kPa
315.6 K | 0.3016 kPa
